Reference: patent US20240108702A1, “Use Of Naturally Occurring Cyclic Peptides For Treatment Of SARS-COV-2 Infection” (The University of Southern California, priority 2021, published 2024)
Where a SMILES comes first, the peptide text is derived from it. Bridges are numbered along the chain shown (N, C = ends).

Assay: Single i.v. bolus PK in a vervet monkey (pilot safety study)
Format: in vivo, vervet/African green monkey (Chlorocebus aethiops sabaeus)
Settings: single 3 mg/kg i.v. bolus
Protocol: Vervet monkey studies: As a pilot safety study, a single dose of Peptide 1 (SEQ ID NO. 1) at 3 mg/kg was administered to an adult male vervet/African green monkey (Chlorocebus aethiops sabaeus) via i.v. bolus. Serial blood samples were collected at 0.5, 1, 4, 8, 24, 48, 72, 96, 120, and 192 h post-administration.
Bioanalytical analysis: Clarified plasma samples from mice were directly diluted into 5% formic acid/5% acetonitrile. Quantitative analysis of Peptide 1 (SEQ ID NO. 1) was performed by LC-MS/MS with reverse-phase liquid chromatography (XBridge™ BEH phenyl 3.5 μm 3×100 mm column, Waters #186003328) on an Acquity™ H-Class UPLC (Waters) coupled to a Xevo™ TQ-S tandem electrospray mass spectrometry running MassLynx™ V4.1 (Waters). Quantitative mass spectroscopy was performed by multiple-reaction monitoring transition 417.32>517.21, with the area under the curve determined by TargetLynx™ (Waters). A synthetic theta defensin-like peptide was used as an internal standard (IS). The lower limit of quantification (LLOQ) of the assay was 1 ng/mL. Intra- and inter-assay precision (percent coefficient of variation [CV]) was ≤3%, and intra and interassay accuracy (% relative error) was ≤5%. Plasma Peptide 1 (SEQ ID NO. 1) concentration analyses for rats and cynomolgus monkey studies were performed at MicroConstants (San Diego, CA) by HPLC using a Mac-Mod™ Analytical ACE C4 column. The mobile phase was nebulized using heated nitrogen in Z-Spray source/interface set to electrospray positive ionization mode, and the compound was detected using MS/MS (LLOQ=10.0 ng/mL). Details of the method are summarized in the MicroConstants method No. MN20038. Clarified plasma samples from a serially sampled vervet were quantified by ultra-performance liquid chromatography Waters Acquity H-Class UPLC. […] Peptide 1 (SEQ ID NO. 1) peak and mass confirmation was performed on post PDA eluent using a Micromass Quattro Ultima™ mass spectrometer with MassLynx™ 4.1 (Waters). The lower limit of quantitation (LLOQ) ranged from 10-30 ng/mL (determined by sample background) to an upper limit of 50 ug/mL. RTD-2 (10 ug/mL) was used as an internal standard. Intra- and interassay precision (% coefficient of variation [CV]) was ≤3%, and intra and interassay accuracy (% relative error) was ≤5%.
Pharmacokinetic analysis: Non-compartmental analysis (NCA) was performed using Phoenix WinNonlin™ (version 8.3.1, Certara USA, Inc.; Princeton NJ) to determine the PK parameters in mice, rats, cynomolgus monkeys, and the vervet. Nominal sampling times were used in the analysis, and data below the lower limit of quantification of the assay were excluded from the analysis. The maximum plasma concentration (Cmax) was determined from visual inspection of the data. In addition, the following parameters were calculated: terminal elimination rate constant (λz), area under the curve extrapolated to infinity (AUC0-∞), area under the curve to dosing interval (AUCτ), mean residence time (MRT), clearance (CL), and volume of distribution at steady state (Vss). AUC was calculated using the linear up, log down method, and the λz was calculated using up to the last four data points of the log-linear terminal phase of the concentration-time profile. Due to sparsely sampled data in mice and rats, the sparse sampling calculation methodology in Phoenix WinNonlin™ was used, which generated a single estimate without standard error for all parameters, except for Cmax. For rats and cynomolgus monkeys, all parameters were calculated using sampling times relative to the beginning of the i.v. infusion.

CC[C@H](C)[C@@H]1NC(=O)[C@@H]2CSSC[C@H](NC(=O)[C@H](CCCNC(=N)N)NC(=O)[C@@H]3CSSC[C@H](NC1=O)C(=O)N[C@@H]([C@@H](C)O)C(=O)N[C@@H](CCCNC(=N)N)C(=O)NCC(=O)N[C@@H](Cc1ccccc1)C(=O)N3)C(=O)N[C@@H](CC(C)C)C(=O)N[C@H]1CSSC[C@H](NC(=O)[C@H](C(C)C)NC(=O)CNC(=O)[C@H](CCCNC(=N)N)NC(=O)[C@H](CCCNC(=N)N)NC1=O)C(=O)N[C@@H](CCCNC(=N)N)C(=O)N2 [Peptide 1] (cyclo(GFCRCLCRRGVCRCICTR); disulfide 3-16, 5-14, 7-12)
AUC (male, monkey, plasma, iv): 21900 ng·h/mL
AUC(0-inf) (male, monkey, plasma, iv): 22100 ng·h/mL
Cmax (male, monkey, plasma, iv): 5190 ng/mL
MRT (male, monkey, plasma, iv): 4.71 h
clearance (male, monkey, plasma, iv): 2.27 mL/min/kg
Vd (male, monkey, plasma, iv, read-out: Vss): 0.639 L/kg
λz: 0.204 h⁻¹
